Data reported in US20240067657A1, “AMIDO-SUBSTITUTED PYRIDYL COMPOUNDS AND METHODS OF USE THEREOF FOR THE TREATMENT OF HERPESVIRUSES” (Merck Sharp & Dohme LLC, priority 2020, published 2024).
Where two headings read alike, the source gives them in different places.

How the values were obtained:
[1] = target: T1, Human cytomegalovirus DNA polymerase (Human cytomegalovirus, UniProt P08546); assay: HCMV polymerase assay (AlphaLISA, IC50); format: biochemical; details: polymerase assay of Example 190
T1 construct: made in house; host or cells: SF21 insect cells (baculovirus vector)
T1 sequence (P08546 whole entry): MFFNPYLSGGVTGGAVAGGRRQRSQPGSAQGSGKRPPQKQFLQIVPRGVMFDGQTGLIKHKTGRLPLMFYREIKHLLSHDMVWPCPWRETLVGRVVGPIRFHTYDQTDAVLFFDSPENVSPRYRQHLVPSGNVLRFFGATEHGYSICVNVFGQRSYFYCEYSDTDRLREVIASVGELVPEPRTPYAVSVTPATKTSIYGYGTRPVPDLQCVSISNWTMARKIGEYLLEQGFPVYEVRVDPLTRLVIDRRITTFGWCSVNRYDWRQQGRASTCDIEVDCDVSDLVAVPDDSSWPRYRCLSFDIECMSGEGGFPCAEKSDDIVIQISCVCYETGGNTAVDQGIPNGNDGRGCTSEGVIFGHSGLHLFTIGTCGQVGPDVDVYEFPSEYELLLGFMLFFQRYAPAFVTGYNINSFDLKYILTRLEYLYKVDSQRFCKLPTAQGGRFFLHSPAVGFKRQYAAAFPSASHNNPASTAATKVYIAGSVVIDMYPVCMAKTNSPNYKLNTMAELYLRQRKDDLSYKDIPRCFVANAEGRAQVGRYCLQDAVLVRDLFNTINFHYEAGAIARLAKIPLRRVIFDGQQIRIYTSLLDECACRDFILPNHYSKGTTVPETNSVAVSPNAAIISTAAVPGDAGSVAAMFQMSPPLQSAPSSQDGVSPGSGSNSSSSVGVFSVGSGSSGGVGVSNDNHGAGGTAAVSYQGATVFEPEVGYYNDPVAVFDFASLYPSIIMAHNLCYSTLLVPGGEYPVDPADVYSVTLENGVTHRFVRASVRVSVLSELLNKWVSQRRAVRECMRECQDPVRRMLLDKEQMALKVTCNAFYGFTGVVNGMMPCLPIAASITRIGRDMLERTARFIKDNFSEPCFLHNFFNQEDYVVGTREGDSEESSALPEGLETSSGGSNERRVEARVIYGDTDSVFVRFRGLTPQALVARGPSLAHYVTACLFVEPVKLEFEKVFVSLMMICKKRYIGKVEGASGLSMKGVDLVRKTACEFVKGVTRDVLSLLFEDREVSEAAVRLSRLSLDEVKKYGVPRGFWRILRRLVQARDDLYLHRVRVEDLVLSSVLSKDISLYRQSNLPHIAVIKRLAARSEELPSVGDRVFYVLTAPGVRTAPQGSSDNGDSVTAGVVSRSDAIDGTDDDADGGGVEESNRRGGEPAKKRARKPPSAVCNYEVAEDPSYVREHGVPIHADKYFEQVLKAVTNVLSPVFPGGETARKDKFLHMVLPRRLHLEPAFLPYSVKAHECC
Procedure: (§1) Human cytomegalovirus and varicella zoster virus DNA polymerases were expressed via baculovirus vector in SF21 cells and purified. Heterodimeric nucleic acid substrate used in the herpesvirus polymerase reactions was generated by annealing a 59-mer template to a 17-mer digoxigenin-labeled primer. Polymerase (HCMV final concentration of 0.2 nM; VZV final concentration of 0.4 nM) was combined with an inhibitor compound or DMSO in assay buffer (10 mM HEPES, pH 7.5, 25 mM KCl, 25 mM NaCl, 5 mM MgCl2, 5% glycerol, 0.67 mg/ml bovine serum albuminutes, and 1 mM tris(2-carboxyethyl)phosphine), and this mixture was pre-incubated for 30 minutes at room temperature in 384-well microtiter plates. The polymerization reaction was initiated by the addition of template/primer substrate (final concentration: 1.6 nM), and dNTPs (final concentration: 24 nM dCTP, 24 nMdGTP, 16 nM dATP, 16 nM dTTP, and 0.8 nM biotin-dUTP). After 60 minutes incubation at 37° C., reactions were terminated with quench buffer (25 mM HEPES pH 7.5, 100 mM NaCl, 0.25% Tween-20, 12 mM EDTA, and 1 mg/ml bovine serum albumin). Incorporation of biotinylated UTP was detected with 2.5-5 ug/ml anti-DIG AlphaLISA acceptor beads and 5-10 ug/ml streptavidin AlphaLISA donor beads (Perkin Elmer). Compound effects were normalized to the window defined by the controls (DMSO only and pre-quenched wells), and were fit using a 4-parameter algorithm to report an IC50.

[2] = target: T2, varicella zoster virus DNA polymerase (Varicella-zoster virus, UniProt P09252); assay: VZV polymerase assay (AlphaLISA, IC50); format: biochemical; details: polymerase assay of Example 190
T2 construct: made in house; host or cells: SF21 insect cells (baculovirus vector)
T2 sequence (P09252 whole entry): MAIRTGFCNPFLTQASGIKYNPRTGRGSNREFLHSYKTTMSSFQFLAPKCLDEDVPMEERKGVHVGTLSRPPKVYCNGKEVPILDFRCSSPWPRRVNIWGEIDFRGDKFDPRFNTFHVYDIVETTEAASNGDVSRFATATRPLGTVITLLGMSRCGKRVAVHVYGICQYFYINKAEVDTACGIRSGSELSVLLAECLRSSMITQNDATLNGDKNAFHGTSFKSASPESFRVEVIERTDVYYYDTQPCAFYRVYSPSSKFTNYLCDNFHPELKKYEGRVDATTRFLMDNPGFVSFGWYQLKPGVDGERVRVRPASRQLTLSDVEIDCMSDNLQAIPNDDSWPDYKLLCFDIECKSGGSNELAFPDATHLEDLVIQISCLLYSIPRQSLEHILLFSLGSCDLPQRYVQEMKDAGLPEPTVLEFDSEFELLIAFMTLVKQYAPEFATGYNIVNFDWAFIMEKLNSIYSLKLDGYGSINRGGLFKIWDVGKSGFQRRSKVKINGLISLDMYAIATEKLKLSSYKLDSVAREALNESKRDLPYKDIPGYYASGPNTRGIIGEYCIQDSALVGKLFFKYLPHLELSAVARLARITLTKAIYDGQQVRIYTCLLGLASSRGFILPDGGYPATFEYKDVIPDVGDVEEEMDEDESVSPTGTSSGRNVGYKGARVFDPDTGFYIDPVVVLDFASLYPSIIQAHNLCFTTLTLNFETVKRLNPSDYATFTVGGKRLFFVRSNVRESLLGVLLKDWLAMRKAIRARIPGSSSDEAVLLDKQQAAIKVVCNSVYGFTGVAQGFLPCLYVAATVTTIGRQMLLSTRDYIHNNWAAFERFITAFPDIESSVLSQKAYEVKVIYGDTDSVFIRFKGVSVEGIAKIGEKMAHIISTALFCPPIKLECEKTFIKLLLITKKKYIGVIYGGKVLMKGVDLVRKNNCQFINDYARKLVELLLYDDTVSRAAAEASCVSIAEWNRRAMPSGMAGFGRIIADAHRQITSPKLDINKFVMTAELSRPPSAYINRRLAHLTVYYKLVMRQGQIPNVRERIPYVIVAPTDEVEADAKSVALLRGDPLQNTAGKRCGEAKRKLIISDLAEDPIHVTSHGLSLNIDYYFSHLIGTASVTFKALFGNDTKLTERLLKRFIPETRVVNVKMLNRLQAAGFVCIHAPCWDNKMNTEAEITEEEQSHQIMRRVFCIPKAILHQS
Procedure: as §1

[3] = system: HCMV Strain AD169 in MRC-5 cells; assay: Viral qPCR assay HCMV (V0/V1, V2/V3), EC50; format: cell-based; details: Human betaherpesvirus 5, AD169, MRC5, viral qPCR assay of Example 191; read-out: HCMV Cell (EC50)
Procedure: (§2) Viral qPCR Assays (V0/V1)
(§3) MRC5 cells, Vero cells, and MeWo cells were obtained from ATCC and were maintained at 37° C./5% CO2/90% relative humidity in Minimal Essential Medium with 10% fetal bovine serum, […] L-glutamine, 100 units/ml penicillin and 100 ug/ml streptomycin. Assay plates were prepared by dispensing compounds dissolved in DMSO into wells of 384 well collagen-coated plates using an ECHO acoustic dispenser. Each compound was tested in a 10-point, serial 3-fold dilution. Controls included uninfected cells and infected cells treated only with DMSO. Assays were initiated by mixing selected cells, in suspension, with virus, and dispensing 50 μl/well infected cells to pre-plated compounds. Plates were incubated at 37° C./5% CO2/90% relative humidity for ˜72 hrs to permit genomic replication, and infected cells were lysed by the addition of an equal volume of lysis buffer (10 mM Tris-HCl, pH8, 50 mM KCl, 2 mM MgCl2, 0.45% NP-40, 0.45% Tween-20, and 100 μg/ml proteinase K). An aliquot of the lysate was transferred to a 384-well PCR plate and incubated at 56° C. for 1 hour and then at 95° C. for 10 min. Levels of a viral gene and of the cellular control, PPIA (Thermo Fisher Assay ID=Hs04194521_s1), were measured in separate 10 μL qPCR assays using TaqMan® Gene Expression Master Mix (Applied Biosystems), and an 7900HT Fast Real-Time PCR System with 384-Well Block Module. 7-point, serial 10-fold dilutions of a plasmid standard were run on each plate to generate a standard curve, and genome copies numbers were calculated by plotting experimental Ct onto linear regression of the standard curve. Viral genome copy numbers were normalized by cellular control copy number, and compound effects were normalized to the window defined by the controls. Calculated % effects were fit using a 4-parameter algorithm, and EC50 was reported.
(§4) Viral qPCR Assays (V2/V3)
as §3, with “gene” for “gene and of the cellular control, PPIA (Thermo Fisher Assay ID=Hs04194521_s1),”, “in” for “in separate”, “Compound effects on viral” for “Viral”, “number” for “numbers were normalized by cellular control copy number, and compound effects”, “reported. • HCMV: Strain AD169 Street was assayed in MRC-5 cells and was used at 0.05-0.1 pfu/cell. The assays were performed in either growth media or in the same media with 50% fetal bovine serum. Primer-probe set was Thermo Fisher Assay ID=AIFATFK. • VZV: Strain Street was maintained as an infected cell stock in MRC-5 cells. It was assayed in MeWo or MRC5 cells and was used at 0.04-0.1 pfu/cell. […]” for “reported.”

[4] = system: VZV in MeWo or MRC5 cells; assay: Viral qPCR assay VZV (V0/V1, V2/V3), EC50; format: cell-based; details: 10%
Procedure: as §2, §3, §4
as §3, with “gene” for “gene and of the cellular control, PPIA (Thermo Fisher Assay ID=Hs04194521_s1),”, “in” for “in separate”, “Compound effects on viral” for “Viral”, “number” for “numbers were normalized by cellular control copy number, and compound effects”, “reported. • HCMV: Strain AD169 Street was assayed in MRC-5 cells and was used at 0.05-0.1 pfu/cell. The assays were performed in either growth media or in the same media with 50% fetal bovine serum. Primer-probe set was Thermo Fisher Assay ID=AIFATFK. • VZV: Strain Street was maintained as an infected cell stock in MRC-5 cells. It was assayed in MeWo or MRC5 cells and was used at 0.04-0.1 pfu/cell. […]” for “reported.”

[5] = system: HSV-1 Strain F in Vero or MRC5 cells; assay: Viral qPCR assay HSV-1 (V0/V1, V2/V3), EC50; format: cell-based; details: 10%
Procedure: as §2, §3, §4
as §3, with “gene” for “gene and of the cellular control, PPIA (Thermo Fisher Assay ID=Hs04194521_s1),”, “in” for “in separate”, “Compound effects on viral” for “Viral”, “number” for “numbers were normalized by cellular control copy number, and compound effects”, “reported. • HCMV: Strain AD169 Street was assayed in MRC-5 cells and was used at 0.05-0.1 pfu/cell. The assays were performed in either growth media or in the same media with 50% fetal bovine serum. Primer-probe set was Thermo Fisher Assay ID=AIFATFK. • VZV: Strain Street was maintained as an infected cell stock in MRC-5 cells. It was assayed in MeWo or MRC5 cells and was used at 0.04-0.1 pfu/cell. […]” for “reported.”

[6] = Human alphaherpesvirus 3, MRC5, MRC5 cells, read-out: VZV Cell (EC50) MRC5 10%
[7] = Human alphaherpesvirus 3, MeWo, MEWO cells, read-out: VZV Cell (EC50) MEWO 10%
[8] = Human alphaherpesvirus 1, MRC5, MRC5 cells, read-out: HSV1 Cell (EC50) MRC5 10%
[9] = Human alphaherpesvirus 1, Vero, VERO cells, read-out: HSV1 Cell (EC50) VERO 10%

IC50 [1]	IC50 [2]	SMILES	EC50 [3]	EC50 [4, 6]	EC50 [4, 7]	EC50 [5, 8]	EC50 [5, 9]
7.37 nM	4.71 nM	O=C(NCc1ccc(Cl)cc1)c1cc(O[C@H]2CCN3C(=O)OC[C@@H]3C2)c(/C=C/CO)cn1 [Compound 155]	204 nM	251 nM	–	243 nM	419 nM
24.9 nM	14.6 nM	CC(=O)N1CCC(Oc2cc(C(=O)NCc3ccc(Cl)cc3)ncc2-c2cnc(C)s2)CC1 [Compound 43]	179 nM	140 nM	–	106 nM	–
5.46 nM	3.36 nM	Cn1cc(-c2cnc(C(=O)NCc3ccc(Cl)c(F)c3)cc2O[C@H]2CCN3C(=O)OC[C@@H]3C2)cn1 [Compound 96]	86.3 nM	132 nM	53.6 nM	71 nM	118 nM
13.5 nM	11.1 nM	CC(=O)N1CCC(Oc2cc(C(=O)NCc3ccc(Cl)cc3)ncc2-c2ncc(C)s2)CC1 [Compound 63]	246 nM	215 nM	–	310 nM	34.2 nM
25.9 nM	26.7 nM	N#Cc1ccc(CNC(=O)c2cc(O[C@H]3CCN4C(=O)OC[C@@H]4C3)c(-c3cnn(C(F)F)c3)cn2)c(F)c1 [Compound 84]	350 nM	345 nM	66.8 nM	463 nM	520 nM
9.49 nM	8.58 nM	O=C(NCc1ccc(Cl)cc1)c1cc(O[C@H]2CCN3C(=O)CC[C@@H]3C2)c(-c2cnn(C(F)F)c2)cn1 [Compound 166]	565 nM	241 nM	–	370 nM	–
31.9 nM	29.4 nM	CC(=O)N1CCC(Oc2cc(C(=O)NCc3ccc(Cl)cc3)ncc2-c2cn(C)c(C)n2)CC1 [Compound 48]	373 nM	294 nM	–	190 nM	–
90 nM	41.1 nM	O=C(NCc1ccc(Cl)cc1)c1cc(O[C@H]2CCN3C(=O)OC[C@@H]3C2)c(CN2CCC(O)CC2)cn1 [Compound 135]	634 nM	–	344 nM	–	9210 nM
201 nM	134 nM	O=C(NCc1ccc(Cl)cc1)c1cc(O[C@H]2CCN3C(=O)OC[C@@H]3C2)cc(CO)n1 [Compound 152]	1890 nM	–	–	–	10700 nM
2310 nM	956 nM	Cc1cnc(-c2cnc(C(=O)NCc3ccc(Cl)cc3)cc2OC(C)C)s1 [Compound 103]	19400 nM	–	–	–	3000 nM
172 nM	119 nM	CC(=O)N1CCC(Oc2cc(C(=O)NCc3ccc(Cl)cc3)ncc2C#Cc2ccc(C)cn2)CC1 [Compound 71]	1510 nM	–	–	–	354 nM
56.6 nM	18.4 nM	O=C(NCc1ccc(Cl)cc1)c1cc(O[C@H]2CCN3C(=O)OC[C@@H]3C2)c(CC2CCCO2)cn1 (mixture of isomers) [Compound 113]	357 nM	–	–	–	227 nM

The next lines start with the compound.

SMILES	IC50 [1]	IC50 [2]	EC50 [3]	EC50 [4, 6]	EC50 [4, 7]	EC50 [5, 8]	EC50 [5, 9]
O=C(NCc1ccc(Cl)cc1)c1cc(O[C@H]2CCN3C(=O)OCC[C@@H]3C2)c(-c2cnn(C(F)F)c2)cn1 (single isomer, unassigned) [Compound 162-1]	3.08 nM	2.42 nM	88.6 nM	447 nM	61.1 nM	107 nM	77 nM
O=C(NCc1ccc(Cl)cc1)c1cc(O[C@H]2CCN3C(=O)OC[C@@H]3C2)c(N2CC(F)C2)cn1 [Compound 125]	37.7 nM	20 nM	198 nM	720 nM	–	531 nM	–
O=C(NCc1ccc(Cl)cc1)c1cc(O[C@H]2CCN3C(=O)OC[C@@H]3C2)c(CN2CCC3OCCC32)cn1 (mixture of isomers) [Compound 142]	17.8 nM	12.9 nM	243 nM	490 nM	–	–	453 nM
O=C(NCc1ccc(Cl)cc1)c1cc(O[C@H]2CCN3C(=O)OC[C@@H]3C2)c(-c2cnc(C(F)F)o2)cn1 [Compound 148]	2.53 nM	4.47 nM	163 nM	229 nM	–	129 nM	–
CC(C)n1cc(-c2cnc(C(=O)NCc3ccc(Cl)cc3)cc2O[C@H]2CCN3C(=O)OC[C@@H]3C2)cn1 [Compound 21]	15.6 nM	13.9 nM	282 nM	–	205 nM	–	206 nM
CC(=O)N1CCC(Oc2cc(C(=O)NCc3ccc(Cl)cc3)ncc2/C=C\c2ccccn2)CC1 [Compound 77]	103 nM	37.2 nM	825 nM	–	230 nM	–	122 nM
Cc1ncc(-c2cc(O[C@H]3CCN4C(=O)OC[C@@H]4C3)cc(C(=O)NCc3ccc(Cl)cc3)n2)s1 [Compound 102]	199 nM	117 nM	8400 nM	–	–	–	427 nM
Cc1cnc(C(=O)NCc2ccc(Cl)cc2)cc1O[C@H]1CCN2C(=O)CC[C@@H]2C1 [Compound 169]	46.7 nM	5.45 nM	1490 nM	–	–	–	594 nM
CC(=O)N1CCC(Oc2cc(C(=O)NCc3ccc(Cl)cc3)ncc2/C=C/CC(C)O)CC1 (centres unmarked) [Compound 72]	68.8 nM	51.8 nM	855 nM	–	–	–	1110 nM
O=C(NCc1ccc(Cl)cc1)c1cc(O[C@@H]2CCN3C(=O)OC[C@H]3C2)c(-c2cn[nH]c2)cn1 (racemic) [Compound 25]	13.9 nM	4.44 nM	259 nM	–	–	–	1670 nM
